From ChEMBL document CHEMBL4229409, “Rational design of novel irreversible inhibitors for human arginase” (Bioorg Med Chem, 2018)
The source made the active and inactive calls. No cut-off for these calls is given here.

What was measured:
[1] = Reversible inhibition of human arginase using thioarginine as substrate measured up to 360 mins by UV micro plate method
Arginase-1 = biological target: T1, Arginase-1 (Homo sapiens, UniProt P05089); experiment: Irreversible inhibition of human arginase 1 using thioarginine as substrate measured up to 360 mins by UV micro plate method
T1 sequence (P05089 whole entry): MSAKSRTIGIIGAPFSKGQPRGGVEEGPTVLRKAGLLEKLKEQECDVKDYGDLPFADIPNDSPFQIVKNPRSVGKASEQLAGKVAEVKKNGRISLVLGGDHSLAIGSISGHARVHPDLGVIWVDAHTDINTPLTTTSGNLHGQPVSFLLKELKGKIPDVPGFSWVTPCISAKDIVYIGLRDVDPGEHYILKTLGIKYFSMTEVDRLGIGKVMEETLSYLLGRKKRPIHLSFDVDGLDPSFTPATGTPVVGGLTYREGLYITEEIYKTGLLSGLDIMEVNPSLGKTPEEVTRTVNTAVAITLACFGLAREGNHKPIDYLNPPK

[2] = biological target: T2, Arginase-2, mitochondrial (Homo sapiens, UniProt P78540); experiment: Irreversible inhibition of human arginase 2 using thioarginine as substrate measured up to 360 mins by UV micro plate method
T2 sequence (P78540 whole entry): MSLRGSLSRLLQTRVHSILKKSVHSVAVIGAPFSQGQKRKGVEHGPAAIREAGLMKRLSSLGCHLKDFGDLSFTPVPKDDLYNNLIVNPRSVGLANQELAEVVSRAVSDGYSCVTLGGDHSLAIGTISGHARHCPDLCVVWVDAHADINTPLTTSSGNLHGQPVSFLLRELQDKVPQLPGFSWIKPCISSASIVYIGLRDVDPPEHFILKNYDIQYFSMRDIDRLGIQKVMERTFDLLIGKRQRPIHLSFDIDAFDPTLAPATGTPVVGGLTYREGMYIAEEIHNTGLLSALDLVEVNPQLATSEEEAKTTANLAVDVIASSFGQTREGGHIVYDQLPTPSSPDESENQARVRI

[3] = biological target: T3, Arginase-2, mitochondrial (Homo sapiens) (UniProt P78540); experiment: Irreversible inhibition of human arginase 2 assessed as inactivation rate constant using thioarginine as substrate measured up to 360 mins by UV micro plate method
T3 sequence (whole entry): T2 sequence (P78540 whole entry)

[4] = biological target: T4, Arginase-1 (Homo sapiens) (UniProt P05089); experiment: Irreversible inhibition of human arginase 1 assessed as inactivation rate constant using thioarginine as substrate measured up to 360 mins by UV micro plate method
T4 sequence (whole entry): T1 sequence (P05089 whole entry)

[5] = biological target: T4, Arginase-1 (Homo sapiens); experiment: Binding affinity to human arginase 1 at Thr135 residues preincubated with compound at 500 uM followed by chymotrypsin addition measured after 16 hrs by tandem mass spectrometric method

Row | SMILES | Ki [1] | Ki (Arginase-1) | Ki [2] | Kinact [3] | Kinact [4] | Activity [5]
1 | N[C@@H](CSCCB(O)O)C(=O)O | 20 µM |  |  |  |  | 
2 | CC(=O)OC(C(=O)O)c1ccc(NC(=N)N)cc1 (stereo not given) |  | 382 µM | 437 µM | 0.033 min⁻¹ | 0.032 min⁻¹ | 
3 | N=C(N)Nc1ccc(C(F)C(=O)O)cc1 (stereo not given) |  | 275 to 307 µM | 322 µM | 0.048 min⁻¹ | 0.029 to 0.031 min⁻¹ | Active
